US12441767B2 (priority 2020, dated 2025)
“Also recorded” adds a separate entry of the source. Like-named read-outs stand apart in the source and are kept apart here. Ends that are not written are not given here.

Assays:
[1] = system: p-Erk1/2; type: cell-based, human
[2] = system: p-Smad2; type: cell-based, human
[3] = system: human ES cells; experiment: Survival / proliferation of human ES cells (cell number by flow cytometry); type: cell-based; settings: E8 culture medium + peptide vs E8 culture medium; 24 h; P13 final concentration 200 μM; one-way ANOVA
[4] = system: human ES cells; experiment: Morphology (colony formation) of human ES cells after five serial passages; type: cell-based
Experimental: Two groups were prepared, with four different culture media (E6, E6+TGFβ1, E6+FGF2 and E8) in each group, and the peptide P13 was added to the 4 culture media in group 1. A total of eight different culture media were prepared.
The human ES cells were serially passaged five times under eight different conditions to detect the differences of morphologies and pluripotency markers. Please refer to FIG. 2a for the morphological difference results observed after five passages.
On the basis of the preliminary results, three groups were prepared, with four different culture media (E6, E6+TGFβ1, E6+FGF2 and E8) in each group, the peptide M6 was added to the four culture media in group 1, respectively, and the P13 was added in another group as the control. In this way, a total of twelve different culture media were prepared.
The human ES cells were serially passaged five times under 12 different conditions to detect the differences of morphologies and pluripotency markers. Please refer to FIG. 3a for the morphological difference results obtained after five passages (in the figure, the samples from left to right were E6, E6+P13, E6+TGFβ1, E6+TGFβ1+P13, E6+FGF2, E6+FGF2+P13, E8 and E8+P13).

[5] = system: OCT4, SOX2 and NANOG; experiment: qPCR of self-renewal markers in human ES cells after five passages; type: cell-based; settings: for expression levels of SOX2 and NANOG: one-way ANOVA ***p<0.001
Source text: The self-renewal markers of the human ES cells were detected by using a quantitative polymerase chain reaction (qPCR) method.
The differential expressions of mRNAs of OCT4, SOX2 and NANOG were detected under the culture conditions of the above eight different culture media. Please refer to FIG. 2b for the detection results.
The self-renewal markers of the human ES cells were detected by using qPCR assay.
The differential expressions of mRNAs of OCT4, SOX2 and NANOG were detected under 12 different conditions. Please refer to FIG. 3b for the detection results (in the figure, the samples from left to right were E6, E6+P13, E6+M6, E6+TGFβ1, E6+TGFβ1+P13, E6+TGFβ1+M6, E6+FGF2, E6+FGF2+P13, E6+FGF2+M6, E8, E8+P13 and E8+M6).

[6] = system: human ES cells; experiment: Cell-penetrating ability of FITC-labeled peptides, confocal microscopy; type: cell-based; settings: 24 h
Experimental: The human ES cells were treated with FITC-labeled P13 and M6 for 24 h, respectively, and the positions of the peptides were confirmed under a confocal microscope by immunostaining with nuclear dye combined with cytoplasmic membrane dye.
Immunostaining of human ES cells treated with the fluorescently labeled P13/M6: Human ES cells were cultured on a sterile cover slide, and a 12-well plate was coated with matrix gel at a concentration of 1 mg/ml for 1-2 h. After 24 h, the cells were washed with a DMEM-F12 culture medium, the E8 culture medium was used for replacement, and the cells were treated with the fluorescently labeled peptide for 24 h. Then, the cell membranes were stained by using the CellMask™ crimson plasma membrane (Thermo Fisher), and incubation was performed at 37° C. for 10 min. The staining solution was removed, 200 μL of 4.0% formaldehyde was added to the culture medium, and incubation was performed at 37° C. for 10 min. The culture medium was then removed. The cells were washed with 1×PBS three times and incubated with 10 μl of DAPI (a DNA staining agent) and a mounting medium for one minute, and the cover slide was mounted and sealed with nail polish to prevent drying. The samples were imaged with a Carl Zeiss confocal LSM710 microscope.

[7] = as reported in the literature; cited from earlier work
[8] = E6 culture medium + peptide vs E6 control culture medium

TGFβ1: growth factor component of the E8 culture medium, 25.6 kDa homodimer linked by a disulfide bond
p-Erk1/2 expression ([1]; E6 with M6 or TGFβ in presence of SB431542 (10 μmol) / A8301 (1.0 μmol)): not observed
p-Smad2 expression ([2]; E6 with 1.0 μmol LDN189193 treated with TGFβ or M6 vs E6 with 1.0 μmol LDN189193): up-regulated
p-Smad2 expression ([2]; growth factor in E6 culture medium (FIG. 5d lanes 3-4)): up-regulated

Gonearrestide (WCYKLPDRVSIKEKGRCN-NH2; cysteine pairing not given here) [P13]
number of human ES cells that survived [3]: significantly higher
expression level of p-Erk1/2 [1, 8]: significantly up-regulated
expression level of p-Erk1/2 ([1]; E6 with P13 and/or FGF2 vs E6+TGFβ1): up-regulated
expression level of p-Erk1/2 ([1]; E8 with P13 vs E8): not significantly up-regulated
expression level of p-Smad2 [2, 8]: significantly up-regulated
expression level of p-Smad2 ([2]; E6 with P13 and/or TGFβ1 vs E6+FGF2): up-regulated
expression level of p-Smad2 ([2]; E8 with P13 vs E8): up-regulated
colony-forming morphology of human ES cells ([4]; E6+TGFβ + peptide, after five passages, vs E6+TGFβ): still maintained their colony morphologies; also recorded: maintained their colony-forming morphologies; also recorded: mixed state of colonies and dispersed cells
morphology of human ES cells ([4]; peptide added to E6+FGF2, five generations): no significant morphological differences; also recorded: no significant difference in their morphologies
morphology of human ES cells ([4]; peptide added to E8, five generations): no significant morphological differences; also recorded: no significant difference in their morphologies
mRNA expression levels of OCT4, SOX2 and NANOG ([5]; E6 + peptide in comparison with other conditions, five passages): low mRNA expression levels
expression levels of SOX2 and NANOG ([5]; E6+FGF2 + peptide vs E6): significantly up-regulated
mRNA expression of OCT4, SOX2 and NANOG ([5]; E6+TGFβ1 + peptide vs E6+TGFβ1): up-regulated
expression levels of SOX2 and NANOG ([5]; E8 + peptide vs E6): significantly up-regulated
position of FITC-labeled peptide in human ES cells ([6]; E8, confocal microscope): bound to the plasma membranes
cell-penetrating peptide (CPP) property ([6]; none found in cytoplasm): did not belong to the CPP family

N=C(N)NCCC[C@H](N)C(=O)O [arginine]
heparin-binding affinity relative to lysine [7]: 2.5 times

FGF2: growth factor component of the E8 culture medium, 16.4 kDa
p-Erk1/2 expression ([1]; growth factor in E6 culture medium (FIG. 5d lanes 1-2)): up-regulated
